We go through one molecule from patent US8883841B2, “Oncogenic ras-specific cytotoxic compound and methods of use thereof” (The Board of Regents of the University of Texas System, priority 2005, dated 2014).

The subject of experiment [1] is RNA transcription (HeLa cell nuclear extracts). Briefly: In vitro transcription assay with HeLa nuclear extracts. It counts as biochemical. The method, then: FIGS. 16A and 16B Effect on RNA processing machinary. (FIG. 16A) T29, T29Kt1, and H460 cells were treated with 10 μM Oncrasin-1 (T29 and T29Kt1) or 1 μM Oncrasin-1 (H460). Twelve hours later, cells were harvested for Western blot analysis for phosphorylation of RNA polymerase II and SR proteins. Cells treated with DMSO were used as control (C). (T) cells treated with Oncrasin-1. Arrows indicate reduced phosphorylation of the polymerase II (pPolII) and SR proteins (pSR) (FIG. 16B) In vitro transcription assay with HeLa cell nuclear extracts (Promoega). The assay was performed following manufacturers instructions. The concentrations used are indicated on the top of the panel. DRB was used as positive control for transcription inhibition.
To further test the role of RNA transcription and splicing in Oncrasin-mediated antitumor activity the phosphorylation of the largest subunit of RNA polymerase II and splicing factors were analyzed. T29, T29Kt1 and H460 cells were treated with Oncrasin-1 at an optimal concentration, around IC60 to IC80 for T29Kt1 and H460 cells. Cell lysates were collected 12 h after the treatment and subjected to Western blot analysis with antibodies specific for phosphorylated RNA polymerase If (H5, Covance Research Products, Inc., Berkeley, Calif.) and SR proteins (1H4, Zymed, obtained from Invitrogen, Carlsbad, Calif.).

A further experiment relates to Rad51. In words: Antibody staining, subcellular localization of Rad51. It is filed as cell-based, human. The conditions noted are these: T29Kt1 cells. From the text: Effects on RNA spliceosome. To investigate the nature of this PKCiota aggregates in the nucleus, the effect of Oncrasin-1 on SC35, a protein required for RNA splicing and assembly of spliceosome (Fu et al., 1992; Vellard et al., 1992), and on Rad51, a homologous DNA recombinase that involves in DNA repair (Benson et al., 1994; Baumann et al., 1996) were studied. […] and DNA repairing are the two important functions executed in the nucleus. In untreated or DMSO-treated cells, SC35 was localized in nucleus as speckles, either diffusely distributed or concentrated as granule clusters (Mistele et al., 1997), whereas Rad51 was more uniformly distributed inside the nucleus. […] This aggregation of SC35 was not observed in Oncrasin resistant T29 cells upon the treatment with Oncrasin-1. […] The effects of Oncrasin on another spliceosome protein, alternative splicing factor/splicing factor 2 (ASF/SF2), was studied (Krainer et al., 1991). […] In the resistant T29 cells, however, such an aggregation is not observed (FIG. 8C).

A further experiment deals with wild-type MEF. Briefly: Icmt-dependent growth inhibition, wild-type MEF. It is filed as cell-based, mouse. The conditions noted are these: up to 100 μM. From the text: Oncrasin and Oncrasin Analogs. Chemically, Oncrasin-1 has the same core structure as indole-3-carbinol, a naturally occurring constituent of many plant foods that has been tested for the prevention and treatment of cancer (Brignall, 2001; Kelloff et al., 1996; Chinni et al., 2001). Oncrasin-1 also has structural similarity to sulindac (Taylor et al., 2000; Sun et al., 2002) and lonidamine (Ravagnan et al., 1999; Papaldo et al., 2003), both of which have been evaluated preclinically and clinically for treatment of cancers. […] Oncrasin compounds also bear a indole core structure as the small-molecule inhibitor of isoprenylcysteine carboxylmethyltransferase (Icmt), 2-[5-(3-methylphenyl)-1-octyl-1H-indol-3-yl]acetamide (cysmethynil), which also induces antitumor activity in Ras gene mutant cancer cells (Winter-Vann et al., 2005). […] Both wild-type MEF and Icmt−/− MEF (Bergo et al., 2004) (kindly provided by Dr. S G Young at the University of California, San Francisco) were resistant to Oncrasin-1.

The next experiment relates to Akt. In words: Western blot analysis of Akt. It is filed as cell-based, human. As to conditions: 1 μM, 12 h. As for the experimental part:
Ras Signaling Pathway and Molecular Mechanisms of Oncrasin-induced apoptosis. To investigate molecular mechanisms of apoptosis induction by Oncrasin compounds, levels several proteins that are involved in apoptosis and/or involved in Ras signaling pathways were determined, including Bax, Bik, Bc12, Bcl-XL, Raf-1, B-Raf, Akt, Mst1 and atypical protein kinase C (aPKC) zeta and PKCiota. To study which molecules are affected by Oncrasin treatment, T29, T29Kt1 and H460 cells were treated with Oncrasin-1 at an optimal concentration, around IC60 to IC80 for T29Kt1 and H460 cells. Cell lysates were collected 12 h after the treatment and subjected to Western blot analysis.

Another experiment has as its system H460 cells. In words: PKCiota siRNA knockdown, apoptosis by FACS in H460 cells. It counts as cell-based, human. The conditions noted are these: 1 μM, 12 h. The method, then:
Knockdown of PKCiota suppressed Oncrasin-mediated apoptosis and cytotoxicity. To investigate possible role of PCKiota in Oncrasin-1 mediated cytotoxicity, PKCiota was knocked down in H460 cells by using oligo ribonucleotides. H460 cells were treated with 200 pM PKCiota siRNA for 24 h, and then with DMSO or 1 μM Oncrasin for another 12 h. After that, cells harvested for analysis of apoptosis by fluorescence-activated cell sorting (FACS) and for expression of PKCiota by Western blot analysis. […] To further study the effect of atypical PKC in Oncrasin-induced cytotoxicity, the inventors obtained plasmids encoding PKCiota and PKCzeta siRNA from Origene Corporation and made stable PKCiota and PKCzeta knockdown T29Kt1 cells. […] The IC50 in PKCiota knockdown T29Kt1 cells were 100 fold higher than parental T29K cells. […] Thus, compounds with synthetic lethality for PKCiota might be useful for treatment of those cancers.

The subject of the next experiment is PKCiota. In words: Immunohistochemical staining, subcellular localization of PKCiota. It is filed as cell-based, human. As for the experimental part: (§1) Effects on subcellular localization of PKCiota. […] To further investigate molecular mechanisms of Oncrasin action the inventors studied the subcellular localization of several molecules involved in Ras-signaling pathway because the functions of Ras and other proteins are directly related to their subcellular localizations. For this purpose, T29Kt1 or H460 cells were seeded on cover glass slides and treated with DMSO or Oncrasin-1 for 12 h. Cells were then fixed with paraformaldehyde, permeabilized with Triton X-100 and stained with various antibodies for immunohistochemical examination. […] Nevertheless, substantial subcellular localization change was detected for PKCiota after Oncrasin-1 treatment (FIG. 6). In both H460 and T29Kt1 cells, both PKCiota and PKCzeta were diffusely distributed in cells with high concentration on cell membrane in nucleus, consisting with previous reports that aPKC contains both nuclear localization signal (NLS) and nuclear export signal (NES), and can shuttle between cytoplasm and nucleus, which was regulated by intramolecular conformational changes, phosphorylation or by treatment with growth factors (Perander et al., 2001; White et al., 2002; Neri et al., 1999). […] Such aggregation of PKCiota was not observed in Oncrasin-resistant T29 and H1299 cells. The inventors then tested whether PKCiota aggregation in the nucleus can be induced by other chemotherapeutic agents such as 5-fluorouracil (5-FU) and paclitaxol.

Experiment [2] deals with Raf-1, Akt, PKCzeta, PKCdelta, and p53. In words: Immunohistochemical staining, subcellular localization of Raf-1, Akt, PKCzeta, PKCdelta, p53. It counts as cell-based, human. As to conditions: T29Kt1 or H460 cells, 12 h. As for the experimental part:
as §1, with “The inventors then tested whether PKCiota aggregation in the nucleus can be induced by other chemotherapeutic agents such as 5-fluorouracil (5-FU) and paclitaxol.” left out

Take `O=Cc1cn(Cc2ccc(Cl)cc2)c2ccccc12` [Oncrasin K001, 1H-Indole-3-carboxaldehyde, 1-[(4-chlorophenyl)methyl]-(9CI)]: in experiment [1], the “in vitro RNA transcription” value is given as “does not inhibit in vitro RNA transcription directly”. The “effect on Rad51” value in the experiment on Rad51 is “no obvious effect”. The “growth inhibition, wild-type MEF” value in the experiment with wild-type MEF is reported as “resistant”. Also, the “Akt level in H460 cells” value in the experiment with Akt is recorded as “down regulation”. The “apoptosis in H460 cells after knockdown of PKCiota by siRNA” value in the experiment on H460 cells is “dramatically suppressed Oncrasin-induced apoptosis”. For the same molecule, in the experiment on PKCiota (12 h), the “PKCiota aggregation in the nucleus, H460 cells” value is “aggregation of PKCiota into large foci in nucleus”. In addition, in the experiment with PKCiota (12 h, comparators at doses giving similar cell killing), the “PKCiota aggregation in the nucleus, T29Kt1 cells” value was “aggregation of PKCiota into large foci in nucleus”. In the experiment with PKCiota (Oncrasin-resistant cells), the “PKCiota aggregation, T29 and H1299 cells” value is “not observed”. Further, the “subcellular localization of Raf-1, Akt, PKCzeta, PKCdelta, and p53” value in experiment [2] was “did not induce obvious changes”.
